# Columns and labels:
# [1] = Slurry experiments at room temperature (thermodynamic stability of crystal forms, X-ray diffraction); type: physicochemical; details: for Slurry Result / Slurry result, large scale: room temperature; for Slurry Result: form by XRD; for Slurry result, large scale: 0.5 g of powder in 10 mL
# Protocol: Slurry experiments of Form I were performed at room temperature to verify if Form I is the thermodynamic crystal form. 0.050 g of Form I was suspended in 2 ml of solvent and stirred for 1 week. The sample was filtered and analyzed by X-ray diffraction. In the large majority of the experiments, Form I converts into Form II. […] By 1,4-Dioxane, a new crystal form was obtained named Form V. See Table 46 for the Form I slurries results (7 days).
# Further slurry experiments of Form I were performed at room temperature using 0.5 g of powder in 10 mL of solvent to confirm the results obtained even in large scale.
# 0.050 g of Form I were suspended in 2 ml of solvent and stirred at room temperature for 4 weeks (30 days). The sample was filtered and analyzed by X-ray diffraction. By 1,4-Dioxane, Form V was obtained. By tetrahydrofuran, Form II and Form VII were obtained. […] See Table 47 for the Form I slurries results (30 days).
# (§1) Slurry experiments of mixtures of Form I and Form II were performed at room temperature to verify their thermodynamic stability. 0.040 g of Form I+0.040 g of Form II were suspended in 4 ml of solvent and stirred for 1 week (7 days). The samples were filtered and analyzed by X-ray diffraction. By 1,4-Dioxane, Form V was obtained. […] See Table 48 for the Form I+Form II slurries results (7 days).
# as §1, with “II” for “I”, “III” for “II”, “II+0.040” for “I+0.040”, “49” for “48”, “II+Form III” for “I+Form II”
# as §1, with “II” for “I”, “IV” for “II”, “II+0.040” for “I+0.040”, “50” for “48”, “II+Form IV” for “I+Form II”
# as §1, with “II” for “I”, “V” for “II”, “II+0.040” for “I+0.040”, “51” for “48”, “II+Form V” for “I+Form II”
# as §1, with “II” for “I”, “VI” for “II”, “II+0.040” for “I+0.040”, “52” for “48”, “II+Form VI” for “I+Form II”
# as §1, with “II” for “I”, “VII” for “II”, “II+0.040” for “I+0.040”, “53” for “48”, “II+Form VII” for “I+Form II”
# [2] = Precipitation from oversaturated solution at 100° C., cooling rate 0.45° C./min; type: physicochemical
# Protocol: Bupropion hydrobromide Form I was dissolved at 100° C. in solvent to obtain the oversaturated solution. The cooling rate applied was 0.45° C./min. The samples were filtered and analyzed by X-ray diffraction. Form I converts into Form VI using 1-Propanol, and into Form V using 1,4-Dioxane. The other experiments yield only Form I. See Table 55 for Form I precipitation results by oversaturated solution. […]
structure (smiles),measurement,setting,value
"Br.CC(NC(C)(C)C)C(=O)c1cccc(Cl)c1 (single isomer, unassigned) [Form I]",Thermodynamic stability of the crystal form as shown by slurry experiments,[1],metastable form
same,Slurry Result,"[1]; 1,2-Dimethoxy Ethane, 7 days",Form II
same,Slurry Result,"[1]; 1,2-Dimethoxy Ethane, 30 days",Form II
same,Slurry Result,"[1]; 1,4-Dioxane, 7 days",Form V
same,Slurry Result,"[1]; 1,4-Dioxane, 30 days",Form V
same,Slurry Result,"[1]; 1-Octanol, 7 days",Form II
same,Slurry Result,"[1]; 1-Octanol, 30 days",Form II
same,Slurry Result,"[1]; 3-Pentanone, 7 days",Form II
same,Slurry Result,"[1]; 4-Methyl-2-Pentanone, 7 days",Form II
same,Slurry Result,"[1]; 4-Methyl-2-Pentanone, 30 days",Form II
same,Slurry Result,"[1]; Acetone, 7 days",Form II
same,Slurry Result,"[1]; Acetone, 30 days",Form II
same,Slurry Result,"[1]; Benzonitrile, 7 days",Form II + VII
same,Slurry Result,"[1]; Cyclohexane, 7 days",Form I
same,Slurry Result,"[1]; Cyclohexane, 30 days",Form II
same,Slurry Result,"[1]; Diethyl Carbonate, 7 days",Form II
same,Slurry Result,"[1]; Diethyl Carbonate, 30 days",Form II
same,Slurry Result,"[1]; Diethyl Ether, 30 days",Form II
same,Slurry Result,"[1]; Diethyl ether, 7 days",Form II
same,Slurry Result,"[1]; Ethyl Acetate (second line of the table), 30 days",Form II
same,"Slurry result, large scale",[1]; Ethyl Acetate,convert into Form II
same,Slurry Result,"[1]; Ethyl Benzoate, 7 days",Form II
same,Slurry Result,"[1]; Ethyl Formate, 7 days",Form II
same,Slurry Result,"[1]; Ethyl Formate, 30 days",Form II
same,Slurry Result,"[1]; Ethyl acetate, 7 days",Form II
same,Slurry Result,"[1]; Ethyl acetate, 30 days",Form II
same,Slurry Result,"[1]; Iso-Propyl Ether, 7 days",Form II
same,Slurry Result,"[1]; Iso-Propyl Ether, 30 days",Form II
same,Slurry Result,"[1]; Isopropyl Acetate, 7 days",Form II
same,Slurry Result,"[1]; Isopropyl Acetate, 30 days",Form II
same,Slurry Result,"[1]; Mesitylene, 7 days",Form II
same,Slurry Result,"[1]; Methyl Benzoate, 7 days",Form II
same,Slurry Result,"[1]; Methyl Benzoate, 30 days",Form II
same,Slurry Result,"[1]; Methyl Ethyl Ketone, 7 days",Form II
same,Slurry Result,"[1]; Methyl Ethyl Ketone, 30 days",Form II
same,Slurry Result,"[1]; Methyl-Cyclohexane, 7 days",Form I
same,Slurry Result,"[1]; Methyl-Cyclohexane, 30 days",Form II
same,Slurry Result,"[1]; Nitrobenzene, 7 days",Form II
same,Slurry Result,"[1]; Propyl Acetate, 7 days",Form II
same,Slurry Result,"[1]; Tert-Butanol, 7 days",Form II
same,Slurry Result,"[1]; Tetrahydrofuran, 7 days",Form II
same,Slurry Result,"[1]; Tetrahydrofuran, 30 days",Form II + VII
same,Slurry Result,"[1]; Toluene, 7 days",Form II
same,Slurry Result,"[1]; Toluene, 30 days",Form II
same,Slurry Result,"[1]; n-Hexan, 7 days",Form II
same,Slurry Result,"[1]; n-Hexan, 30 days",Form II
same,"Slurry result, large scale",[1]; p-Xylene,convert into Form II
same,Slurry Result,"[1]; p-Xylene, 7 days",Form II
same,Slurry Result,"[1]; p-Xylene, 30 days",Form II
same,Slurry Result,"[1]; t-Butyl Methyl Ether, 7 days",Form II
same,Slurry Result,"[1]; t-Butyl Methyl Ether, 30 days",Form II
same,Precipitation Result,"[2]; solvent 1,4-Dioxane",Form V
same,Precipitation Result,[2]; solvent 1-Butanol,Form I
same,Precipitation Result,[2]; solvent 1-Methyl-2-Pyrrolidone,Form I
same,Precipitation Result,[2]; solvent 1-Propanol,Form VI
same,Precipitation Result,[2]; solvent 2-Methoxy Ethanol,Form I
same,Precipitation Result,[2]; solvent 2-Methyl-1-Propanol,Form I
same,Precipitation Result,[2]; solvent (±)2-Butanol,Form I
same,Precipitation Result,[2]; solvent Dimethyl formamide,Form I
same,Precipitation Result,[2]; solvent Dimethyl sulfoxyde,Form I
same,Precipitation Result,[2]; solvent Nitromethane,Form I
same,Precipitation Result,[2]; solvent Water,Form I
same,Precipitation Result,[2]; solvent p-Xylene,Form I

# Reference: patent US8604085B2, “Bupropion hydrobromide polymorphs” (Valeant International Bermuda, priority 2008, dated 2013)
